Assay results as given in publication PMC5992379 (Frontiers in Molecular Neuroscience, 2018).
Values joined by “and” are separate entries in the source; they are usually repeats but may differ in a detail not shown here. Equal values may be shown once. Read-outs that look alike come from different tables or passages of the source.

How the values were obtained:
[1] = test system: BALB/c mice; settings: for effect of antagonist on the antiallodynia effect of WOBE437, single dose / effect of antagonist on the antiallodynia effect of WOBE437, 3 days treatment / effect of antagonist on the antiinflammatory (edema) effect of WOBE437, 3 days treatment: antagonist i.p. 30 min before WOBE437 10 mg/kg i.p.
Protocol: BALB/c mice were anesthetized with xylazine/ketamine (5 and 10 mg/kg, respectively) and subsequently monoarthritis was induced by intra-articular injection of complete Freund’s adjuvant (CFA, 40 μL; Sigma-Aldrich, St. Louis, MO, United states) into the right knee joint. The inflammation was allowed to develop for 14 days prior to pharmacological treatments starting at day 15 for 1 or 3 days, respectively. Mechanical sensitivity (allodynia) and knee diameter (edema) were evaluated 1 h post treatment in the ipsilateral and contralateral knees. Articular sensitivity was evaluated using a digital algometer (Bioseb, United states). […] A cut-off force of 300 g was considered to avoid damage in the tissue. The measurements were done in triplicates and the average was considered for the statistical analysis. To evaluate the degree of inflammation, knee diameter was measured in both extremities using a digital micrometer (Mitutoyo, United states). […] Indomethacin (5 mg/kg; Sigma-Aldrich, United states) was used as a reference drug (positive control). For all the compounds, dimethylsulfoxide (DMSO) was used as vehicle (20 μL, i.p.).

[2] = test system: Cnr1, Cnr2, Nape-pld, Dagla; assay: Real-time PCR of ECS genes after 3 days treatment in the monoarthritis model; type: in vivo, BALB/c mice; settings: 10 mg/kg i.p., somatosensory cortex, thalamus, articular tissue
Protocol: Total RNA extraction and reverse transcription were carried out with a previously described protocol ([Castro-Torres et al., 2015]). The kit LightCycler® FastStart DNA Master^PLUS SYBR Green I (Roche, United states) was used for the real-time PCR, according to manufacturer protocol, and the reaction was performed in the LightCycler 2.0 equipment (Roche, United states). The relative gene expression was calculated by using the method known as 2ˆ(-ΔΔCt) ([Livak and Schmittgen, 2001]). ΔΔCt was calculated using the following formula:
(1) ΔΔCt=(CtTE−CtHE)−(CtTC−CtHC)
Finally 2ˆ(-ΔΔCt) was calculated to obtain the fold change of gene expression. Every sample (n = 6-15, per group and region) was analyzed in duplicated and the mean value was considered for ΔΔCt calculation. Beta-actin was used as the housekeeping gene and mean of vehicle group was used as a calibrator. Sequences and size products of the primers for beta actin (Actb) cannabinoid CB1 receptor (Cnr1), cannabinoid CB2 receptor (Cnr2), diacylglycerol lipase alpha (Dagla), N-acylphosphatidylethanolamine specific phospholipase D (Nape-pld) are shown in Table 1.

[3] = test system: BALB/c male mice; design: method as in Chicca et al., 2017; settings: i.p.; ref Chicca et al., 2017; cited from earlier work
[4] = test system: BALB/c male mice; assay: Hot plate test (acute pain) after oral administration; type: in vivo
Protocol: The test was performed using a clean 54–56°C hot plate (Thermo Fisher Scientific, United states) with a Plexiglas cylinder. The latency to show the first nociceptive response (paw lick or foot shake) was measured.

[5] = for Clearance: 1 μM WOBE437, preliminary; for MAB (estimated maximal bioavailability): from liver microsome clearance
Protocol: Human or mice microsome clearance experiment were carried out as according to a previously describe protocol ([Soethoudt et al., 2017]). […] After 1, 3, 6, 9, 15, 25, 35, and 45 min, 40 μL of the preparation was transferred and quenched with 3:1 (v/v) acetonitrile containing internal standards. Samples were then cooled and centrifuged before analysis by LC-MS/MS. Log peak area ratios (test compound peak area/internal standard peak area) are plotted against incubation time using a linear fit. The calculated slope is used to determine the intrinsic clearance. Data are obtained from single experiments measured with multiple time-points.

[6] = test system: BALB/c mice; assay: Open field test in monoarthritic mice; type: in vivo; settings: WOBE437 i.p.
Protocol: Potential motor changes were evaluated in an open field box (40 cm × 40 cm × 30 cm, Plexiglas). The mice were individually placed in the center and allowed to move freely for 5 min. The locomotion activity was recorded with the OpenFieldTest^© ([Reynoso-Moreno et al., 2017]) and traveled distance was evaluated automatically. After every experiment, the box was cleaned with 70% ethanol to remove odors.

[7] = test system: BALB/c male mice; assay: Tetrad test; type: in vivo; settings: 50 mg/kg p.o., 1 h after gavage
Protocol: The tetrad test was performed in the following order: rectal temperature, catalepsy, locomotion and analgesia. Rectal temperature was measured before (basal) and 1 h post gavage administration by using a thermocouple probe (Physitemp Instruments Inc., United states) and results were reported as the difference (Δ) between both temperatures. The bar test was used to evaluated catalepsy by placing the mouse in an imposed position with both forelimbs resting on a bar of 4 cm high; the end point of catalepsy was considered when both front limbs were removed or remained over 120 s. Locomotor activity was determined by placing the mouse on a rotarod (Erweka, Germany) at 4 rpm, the latency to fall was measured with a cut-off time of 120 s. Each mouse was previously trained to walk over the rotarod for at least 120 s. Catalepsy and locomotion were measured in three trials. Analgesia was evaluated with the hot plate test, each mouse was placed in a 54–56°C hot plate (Thermo Fisher Scientific, United states) with a Plexiglas cylinder, the latency to first nociceptive response (paw lick or foot shake) was measured.

[8] = test system: endocannabinoid levels (AEA, 2-AG); assay: Endocannabinoid, N-acylethanolamine and WOBE437 levels by LC-MS/MS after the hot plate test; type: in vivo, BALB/c male mice
Text: The mice were sacrificed by decapitation after gavage administration. […] Whole brain samples were dissected between the hemispheres.
Samples were centrifuged and the organic phase was recovered.

[9] = for WOBE437 brain levels / WOBE437 plasma levels: 20 min after gavage
Protocol: The mice were sacrificed by decapitation after gavage administration. Brain, blood, liver, kidney, and spleen were collected for the LC-MS/MS analyses. All tissues were briefly washed with ice cold PBS and immediately snap-frozen and stored at -80°C. Whole brain samples were dissected between the hemispheres. Blood samples were immediately centrifuged to obtain plasma, which was stored at -80°C.
Samples extractions and LC-MS/MS measurements we performed as previously described ([Chicca et al., 2017]). Briefly, tissues were weighted and transferred in to extraction tubes containing three steel beads and 0.1 M formic acid. Tissues were homogenized and rapidly transferred to glass tubes containing 1.5 mL of ethyl acetate:hexane (9:1) 0.1% formic acid and internal standards (ISs). Samples were centrifuged and the organic phase was recovered. After evaporation, the extracts were reconstituted in 200 μL of ACN:ddH2O (8:2). 10 μL of the solution were injected in the LC-MS/MS system using the same LC and ionization protocols as described ([Chicca et al., 2017]).

[10] = 50 mg/kg p.o., 1 h after gavage

Oc1cc2c(cc1O)CN(C(=S)NCCc1ccc(Cl)cc1)CCC2 [capsazepine]
effect of antagonist on the antiallodynia effect of WOBE437, single dose ([1]; single dose): completely prevented
tolerability of the antagonist together with 3 days WOBE437 treatment ([1]; capsazepine with WOBE437 10 mg/kg i.p., 3 days): unexpected hypersensitivity

CCCCCCC/C=C/C=C/C(=O)NCCc1ccc(OC)c(OC)c1 [WOBE437]
expression of Cnr1, Cnr2, Dagla and Nape-pld [2]: did not lead to any significant change
reduction in allodynia as compared to the contralateral knee ([1]; 10 mg/kg i.p., 3 days treatment): 52%
reduction of inflammation (edema) ([1]; 10 mg/kg i.p., 3 days treatment, as compared to the contralateral knee): 58%
knee diameter ([1]; 10 mg/kg i.p., 3 days treatment, ipsilateral knee): 5.3 ± 0.4 mm
allodynia after single dose ([1]; 10 mg/kg i.p., single dose, 1 h post treatment): significantly decrease allodynia
allodynia and edema at lower doses ([1]; 2.5 and 5.0 mg/kg i.p.): did not show any significant changes
fully effective dose in the hot plate test upon systemic administration [3]: 10 mg/kg
increase of pain threshold vs vehicle [4, 10]: 61.7%
pain threshold (latency to first nociceptive response) [4, 10]: 9.4 ± 1.9 s
pain threshold (latency to first nociceptive response) ([4]; 100 mg/kg p.o., 1 h after gavage): 11.7 ± 2.6 s
overall bioavailability compared to the i.p. administration route ([4]; from effective doses in hot plate test, 50 mg/kg p.o. vs 10 mg/kg i.p.): 20%
estimated effective dose (ED50) ([4]; p.o., hot plate): 42.5 ± 3.9 mg/kg
minimum dose necessary to significantly increase the pain threshold ([4]; p.o., hot plate): 50 mg/kg
Clearance ([5]; human liver microsomes): 0.657 mL/min/kg
MAB (estimated maximal bioavailability) ([5]; humans): 4%
MAB (estimated maximal bioavailability) ([5]; mice): 17%
Clearance ([5]; mouse liver microsomes): 0.174 mL/min/kg
spontaneous motor activity (travel distance) [6]: without significant observable changes
antinociception in tetrad test (hot plate) [7]: significant antinociception
motor coordination (rotarod) [7]: No statistical differences
change in body temperature ([7]; not statistically different): -0.8 ± 0.8 °C
latency of catalepsy ([7]; not statistically different): 10.5 ± 10.6 s
2-AG levels in plasma ([8]; 25 mg/kg p.o., 1 h): 21.4 ± 4.5 pmol/mL
2-AG levels in plasma ([8]; 50 mg/kg p.o., 1 h): 22.6 ± 4.8 pmol/mL
2-AG levels in somatosensory cortex ([8]; 50 mg/kg p.o., 1 h): no changes
AEA and 2-AG levels in total brain ([8]; 50 mg/kg p.o., 1 h): tendency to increase
AEA levels in somatosensory cortex ([8]; 50 mg/kg p.o., 1 h): significant increase
concentration of AEA in plasma ([8]; 50 mg/kg p.o., 1 h): 2.2 ± 0.3 pmol/mL
2-AG concentration in total brain ([8]; 50 mg/kg p.o., 1 h, tendency, not significant): 13.9 ± 2.6 nmol/g
2-AG levels in plasma ([8]; 100 mg/kg p.o., 1 h): 23.8 ± 5.7 pmol/mL
increase of 2-AG levels in plasma ([8]; 25, 50, and 100 mg/kg p.o., vs control): 40%
levels of WOBE437 in somatosensory cortex, total brain and plasma ([8]; BALB/c mice, 1 h after p.o.): in the same range as in male C57BL6/J mice
levels of N-acylethanolamines other than AEA (PEA, OEA, LEA) ([8]; somatosensory cortex, total brain or plasma, 1 h after p.o.): No changes
WOBE437 brain levels ([9]; 10 mg/kg p.o.): 24.7 ± 25.3 pmol/g
WOBE437 plasma levels ([9]; 10 mg/kg p.o.): 47.3 ± 32.5 pmol/mL
apparent Cmax in brain ([9]; 50 mg/kg p.o.): ~500 pmol/g and 471.7 ± 182.6 pmol/g
apparent volume of distribution (Vd) at Cmax ([9]; 50 mg/kg p.o.): 80.4 L/kg
apparent volume of distribution (Vd) at the steady state ([9]; 50 mg/kg p.o.): 609 L/kg
factor of reduction of hepatic concentration between 20 and 40 min ([9]; 50 mg/kg p.o.): 4
highest concentration in kidney ([9]; 50 mg/kg p.o.): 2277 ± 916 pmol/g
highest concentration in spleen ([9]; 50 mg/kg p.o.): 1030 ± 339 pmol/g
time after which WOBE437 is cleared from the brain ([9]; 50 mg/kg p.o.): approximately 180 min
tmax in kidney, liver, and spleen ([9]; 50 mg/kg p.o.): ≤ 20 min
brain levels after p.o. as compared to i.p. ([9]; 50 mg/kg p.o. vs 10 mg/kg i.p.): approximately 10 times lower
highest concentration in liver ([9]; 50 mg/kg p.o., 20 min): 4720 ± 3273 pmol/g
WOBE437 brain levels ([9]; 50 mg/kg p.o.): 534.5 ± 109.9 pmol/g
WOBE437 plasma levels ([9]; 50 mg/kg p.o.): 1731.5 ± 703.4 pmol/mL
hepatic concentration at 40 min ([9]; 50 mg/kg p.o., 40 min): 1080 pmol/g
WOBE437 concentration in brain 3 h after administration ([9]; 50 mg/kg p.o., 3 h): 18 pmol/g
Brain t1/2 ([9]; 50 mg/kg p.o., Figure 1B): 62.7 min
Plasma t1/2 ([9]; 50 mg/kg p.o., Figure 1B): 19.5 min
estimated concentration in brain ([9]; 50 mg/kg p.o., equivalent of brain Cmax): 399.7 ± 154.7 nM
Cmax ([9]; read-out: apparent Cmax in plasma, 50 mg/kg p.o.): ~2000 nM and 1930 nM

Cc1c(C(=O)NN2CCCCC2)nn(-c2ccc(Cl)cc2Cl)c1-c1ccc(Cl)cc1 [rimonabant]
effect of antagonist on the antiallodynia effect of WOBE437, 3 days treatment ([1]; 3 days): fully abolished
effect of antagonist on the antiinflammatory (edema) effect of WOBE437, 3 days treatment ([1]; 3 days): only partially prevented
effect of antagonist on the antiallodynia effect of WOBE437, single dose ([1]; single dose): did not block
effect of antagonist pre-treatment on the antinociceptive effect of WOBE437 ([4]; rimonabant 5 mg/kg i.p. 30 min before WOBE437 50 or 100 mg/kg p.o.): completely abolished

SR144528
effect of antagonist on the antiallodynia effect of WOBE437, 3 days treatment ([1]; 3 days): fully abolished
effect of antagonist on the antiallodynia effect of WOBE437, single dose ([1]; single dose): completely prevented

O=C(Nc1ccccc1)c1cc([N+](=O)[O-])ccc1Cl [GW9662]
effect of antagonist on the antiallodynia effect of WOBE437, 3 days treatment ([1]; 3 days): fully abolished
effect of antagonist on the antiinflammatory (edema) effect of WOBE437, 3 days treatment ([1]; 3 days): only partially prevented
effect of antagonist on the antiallodynia effect of WOBE437, single dose ([1]; single dose): did not block
